Assay results: PMC7935113, “Development and in vivo evaluation of intranasal formulations of parathyroid hormone (1-34)” (Drug Delivery, 2021)
Read-outs that look alike come from different tables or passages of the source.

Experiments:
[1] = tested on: Human nasal epithelial cells (HNEpCs); conditions: MTT, n = 8
Experimental: Human nasal epithelial cells (HNEpCs) purchased from the American Type Culture Collection (Rockville, MD, USA) were used as an in vitro model of the nasal mucosa. The cells were cultured in culture medium (Eagle’s minimum essential medium (MEM) supplemented with 10% (v/v) fetal bovine serum (FBS) and 1% penicillin/streptomycin solution) and maintained in 5% CO2/95% humidified air at 37 °C.
HNEpCs were seeded at a density of 5 × 10^3 cells/well in 96-well plates (Corning, NY, USA) and cultured for 24 h before the experiment. […] The culture medium was used as a negative control, and 20% dimethyl sulfoxide (DMSO) was used as a positive control. Following 6 h of incubation, the test solutions were removed, and the cytotoxicity was determined using a commercial MTT kit. The cells were washed, and then, MTT reagent in culture medium was added for a further 3 h incubation at 37 °C. The remaining media was removed, and 200 μL DMSO was added to each well to dissolve the formazan crystals. The resulting absorbance was read at 490 nm.

[2] = tested on: HNEpC layers; assay: Permeability of FITC-PTH across HNEpC layers (Transwell); assay type: in vitro ADME, human; conditions: HNEpC monolayer, apical to basolateral, 10 μg/mL FITC-PTH, all tested concentrations (0.015%, 0.010% and 0.005%), fluorescence
Experimental: […] were seeded at a density of 10 × 10^4 cells/well on Transwell® supports with a pore size of 0.4 μm. TEER (Ω·cm^2) was determined using a Millicell electrical resistance system (ERS) voltohmmeter (Millipore, Bedford, MA, USA). Cell monolayers with TEER values exceeding 500 Ω·cm^2 were used for further experiments. […] Prior to the permeability experiment, the cell monolayers were equilibrated with 1.0 mL Hank's balanced salt solution (HBSS) in the basolateral compartment and 0.4 mL culture medium in the apical chamber for 30 min. Subsequently, the apical culture medium was withdrawn, and 0.2 mL solution of a test solution was applied. Thereafter, 200 μL receiver samples from the basolateral compartment were taken every 30 min for 4 h, and then, 200 μL fresh HBSS was added to the basolateral compartment.

[3] = tested on: HNEpC monolayers; assay: Effect of permeation enhancers on TEER of HNEpC monolayers; assay type: cell-based, human; conditions: HNEpC monolayer, apical application, all solutions (0.005%, 0.010%, 0.015%), n = 8
Experimental: HNEpCs were seeded at a density of 10 × 10^4 cells/well on Transwell® supports with a pore size of 0.4 μm. TEER (Ω·cm^2) was determined using a Millicell electrical resistance system (ERS) voltohmmeter (Millipore, Bedford, MA, USA). Cell monolayers with TEER values exceeding 500 Ω·cm^2 were used for further experiments. […] Prior to the permeability experiment, the cell monolayers were equilibrated with 1.0 mL Hank’s balanced salt solution (HBSS) in the basolateral compartment and 0.4 mL culture medium in the apical chamber for 30 min. Subsequently, the apical culture medium was withdrawn, and 0.2 mL solution of a test solution was applied. Thereafter, 200 μL receiver samples from the basolateral compartment were taken every 30 min for 4 h, and then, 200 μL fresh HBSS was added to the basolateral compartment. Finally, the FITC-PTH concentration in the collected samples was analyzed using a Varioskan LUX multimode microplate reader with ex/em 485/518 nm.
HNEpC monolayers were cultured as described above. The baseline TEER was measured before the experiment for 60 min. […] A chitosan solution at 0.003% w/v in culture medium was used as a positive control. The results for each experiment are presented as percentages relative to their respective baseline TEER.

[4] = tested on: nasal septum mucosae; assay: Nasal mucosal toxicity: mucosa morphology (SEM) after intranasal dosing; conditions: SD rats, citric acid solutions (0.2-0.6%), 15 consecutive days
Experimental: (§1) Mucosa morphology was considered a direct indicator of nasal mucosal toxicity. […] This mucosa morphology study was performed in vivo using healthy male SD rats. The rats were lightly anesthetized with diethyl ether and intranasally administered test solutions. Generally, 0.1 mL of the corresponding solution was equally administered to the two nostrils of one rat for 15 consecutive days. Finally, 2 days after stopping intranasal administration, the rats were sacrificed by an intraperitoneal injection of urethane and their hearts were perfused with saline. The nasal septum mucosae were then carefully peeled off, fixed with 3% w/v glutaraldehyde (diluted by PBS), and dehydrated with a gradient of ethanol. Finally, the fixed nasal mucosae were dried at the CO2 critical point, sprayed with ion sputtering, and observed under SEM.

[5] = tested on: HNEpCs; assay: Cellular internalization of FITC-PTH; assay type: cell-based, human
Experimental: A 20 μg/mL FITC-PTH solution without any permeation enhancer was used as a negative control, and a 20 μg/mL FITC-PTH solution supplemented with 0.1% Triton X-100 was used as a positive control. The test solutions were added to the corresponding wells, and the amount of cellularly internalized PTH was measured after 30 min following sample applications. […] Finally, the cells were lysed with cell lysis buffer. The resulting lysis products were collected for fluorescence measurement and protein content measurement. The fluorescence measurement was carried out using a Varioskan LUX multimode microplate reader with ex/em 485/518 nm, and the protein content was measured by using a commercial BCA protein assay kit (Solarbio Life Sciences). The amount of internalized PTH(1-34) in each well was normalized to the protein content.

[6] = tested on: nasal septum mucosae; conditions: rat, in vivo
Experimental: as §1

[7] = cited from earlier work
[8] = Isoelectric point by capillary electrophoresis; assay type: physicochemical; conditions: authors' previous capillary electrophoresis (CE) analysis, no reference given
Excerpt: The essential point for the development of a liquid PTH(1-34) formulation was ensuring the stability of PTH(1-34). In this context, the aqueous environment was screened by utilizing MD simulations and HPLC analysis. In recent decades, MD simulations have been increasingly reported to investigate the conformational equilibria of polypeptides in solution (Colombo et al., [2002]). […] The HPLC analysis results further confirmed that PTH(1-34) had the best chemical stability in 0.008 M ABS. According to our previous capillary electrophoresis (CE) analysis, the isoelectric point (pI) of PTH(1-34) is approximately pH 7.77, indicating easy solubility and stability under acidic condition. The pH values of PBS and ABS were 7.4 and 4.0, respectively. Consequently, 0.008 M ABS had the best stability performance, most likely due to its acidic pH value and low ionic strength.

[9] = Chemical stability of PTH(1-34) in aqueous buffer solutions at 40 °C (HPLC); assay type: physicochemical
Experimental: HPLC measurements were performed with an HPLC instrument equipped with a photodiode array detector. A C-18 column (Cosmosil 250 × 4.6 mm, 5 µm, Japan) was used, and the sample solutions were applied via an autosampler (Merck-Hitachi, Darmstadt, Germany). Analysis of PTH(1-34) and its degradation products was performed under the following conditions. Mobile phase A was 0.1% (v/v) TFA in acetonitrile, and mobile phase B was 0.1% TFA (v/v) in water. […] A detection wavelength of 214 nm and column temperature of 25 °C were used.
Stability studies were carried out to clarify the influence of aqueous solvent on the stability of PTH(1-34) during storage and to determine the optimal aqueous environment. First, PBS and ABS were prepared as solvent solutions: 0.063 M PBS was prepared by dissolving 3.73 g sodium dihydrogen phosphate and 36.55 g disodium hydrogen phosphate in 1000 mL Milli-Q water; 0.032 M ABS was prepared as by dissolving 0.664 g glacial acetic acid and 1.64 g sodium acetate trihydrate together in 1000 mL Milli-Q water. Then, 0.016 M ABS, 0.008 M ABS, and 0.004 M ABS were prepared by diluting 0.032 M ABS with Milli-Q water. Following preparation, the pH values of the PBS and ABS solutions were measured using a pH meter (Mettler Toledo FiveEasy Plus).
To examine the stability of peptides in each aqueous medium, 3 mg/mL PTH(1-34) was separately incubated in 0.063 M PBS, 0.032 M ABS, 0.016 M ABS, 0.008 M ABS and 0.004 M ABS. Aliquots of PTH(1-34) were individually incubated at 40 °C, and the PTH(1-34) content was analyzed at 0, 6, 12, 24, 36, 48, 60 and 72 h postincubation. In addition, the impurities of PTH(1-34) in the 0.032 M ABS, 0.016 M ABS, 0.008 M ABS and 0.004 M ABS solutions were quantified by HPLC at the time points of 0, 24, 72 and 120 h postincubation at 40 °C.

C[S+](C)[O-] [DMSO, dimethyl sulfoxide]
HNEpC viability ([1]; 6 h, 20% DMSO positive control, vs culture medium): statistically lower

O=C(O)CC(O)(CC(=O)O)C(=O)O [citric acid]
duration of enhanced permeation rate of FITC-PTH relative to control [2]: 60 min
time point of TEER reversal to the baseline level [3]: 40 min
observations in rats during intranasal administration [4]: bleeding of the nose was observed
cellular internalization of FITC-PTH (normalized to protein content) ([5]; 20 μg/mL FITC-PTH with 0.005%, 0.010%, 0.015% enhancer, 30 min, fluorescence 485/518 nm, n = 8): did not exhibit an obvious promotion effect
HNEpC viability ([1]; 6 h exposure, concentration of 0.1%): 73.03%
HNEpC viability ([1]; 6 h exposure, concentrations of 0.01% and 0.05%, vs culture medium): comparable with that of the negative control

Triton X-100
cellular internalization of FITC-PTH (normalized to protein content) ([5]; 20 μg/mL FITC-PTH with 0.1% Triton X-100, positive control): significantly promoted

macrogol 15-hydroxystearate [Kolliphor® HS·15]
observations in rats during intranasal administration [6]: did not induce any observed discomfort

nafarelin
bioavailability ([7]; in vivo): lower than 3%

parathyroid hormone (1-34) [PTH(1-34)]
isoelectric point (pI) [8]: ~7.77 pH
impurities of PTH(1-34) ([9]; 3 mg/mL in 0.008 M ABS compared with 0.032, 0.016 and 0.004 M ABS, 120 h, HPLC): lowest amount of impurities
PTH(1-34) content ([9]; chemical stability, 3 mg/mL in 0.032, 0.016, 0.008 and 0.004 M ABS (pH 4.0), up to 72 h, HPLC UV 214 nm): no detectable decrease
content of PTH(1-34) ([9]; chemical stability, 3 mg/mL in 0.063 M PBS (pH 7.4), after 72 h of incubation, HPLC UV 214 nm): 76.34%

salmon calcitonin
bioavailability ([7]; intranasal peptide formulations devoid of permeation enhancers, ref Ozsoy et al., [2009]): lower than 3%
